Columns and labels:
Test in all cases: relative viability (nuclei count vs DMSO), 5 days (fraction); higher = more cells survive
201T = tested on: 201T
Procedure, shortened: (§1)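 Lung cancer cell lines in 1536-well plates got either a single drug or a fixed anchor-drug dose together with five library-drug doses (not always all listed) in √10 steps, by pin tool, on the day after seeding. Nuclei were counted after 5 days, and relative viability is the treated-to-vehicle ratio of nuclei counts. Values are medians of duplicate plates.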

COR-L23 = tested on: COR-L23
Procedure, shortened: as §1

H3255 = tested on: H3255
Procedure, shortened: as §1

HARA = tested on: HARA
Procedure, shortened: as §1

HCC-366 = tested on: HCC-366
Procedure, shortened: as §1

HCC-78 = tested on: HCC-78
Procedure, shortened: as §1

LU99A = tested on: LU99A
Procedure, shortened: as §1

NCI-H1650 = tested on: NCI-H1650
Procedure, shortened: as §1

NCI-H1651 = tested on: NCI-H1651
Procedure, shortened: as §1

NCI-H1755 = tested on: NCI-H1755
Procedure, shortened: as §1

NCI-H1793 = tested on: NCI-H1793
Procedure, shortened: as §1

NCI-H2085 = tested on: NCI-H2085
Procedure, shortened: as §1

NCI-H2087 = tested on: NCI-H2087
Procedure, shortened: as §1

NCI-H23 = tested on: NCI-H23
Procedure, shortened: as §1

NCI-H3122 = tested on: NCI-H3122
Procedure, shortened: as §1

NCI-H322M = tested on: NCI-H322M
Procedure, shortened: as §1

NCI-H358 = tested on: NCI-H358
Procedure, shortened: as §1

NCI-H460 = tested on: NCI-H460
Procedure, shortened: as §1

NCI-H596 = tested on: NCI-H596
Procedure, shortened: as §1

NCI-H650 = tested on: NCI-H650
Procedure, shortened: as §1

PC-3 [JPC-3] = tested on: PC-3 [JPC-3]
Procedure, shortened: as §1

SK-LU-1 = tested on: SK-LU-1
Procedure, shortened: as §1

Cc1cn(-c2cc(NC(=O)c3ccc(C)c(Nc4nccc(-c5cccnc5)n4)c3)cc(C(F)(F)F)c2)cn1 [Nilotinib] + CS(=O)(=O)N1CCN(Cc2cc3nc(-c4cccc5[nH]ncc45)nc(N4CCOCC4)c3s2)CC1 [Pictilisib] (partner 1 µM)
relative viability (201T; first compound 0.001 µM): 0.732 | relative viability (201T; first compound 0.003162 µM): 0.742 | relative viability (201T; first compound 0.01 µM): 0.531 | relative viability (201T; first compound 0.1 µM): 0.459 | relative viability (COR-L23; first compound 0.001 µM): 0.777 | relative viability (COR-L23; first compound 0.003162 µM): 1.01 | relative viability (COR-L23; first compound 0.01 µM): 1.4 | relative viability (COR-L23; first compound 0.03162 µM): 0.901 | relative viability (COR-L23; first compound 0.1 µM): 0.607 | relative viability (H3255; first compound 0.001 µM): 0.44 | relative viability (H3255; first compound 0.003162 µM): 0.438 | relative viability (H3255; first compound 0.01 µM): 0.57 | relative viability (H3255; first compound 0.03162 µM): 0.416 | relative viability (H3255; first compound 0.1 µM): 0.441 | relative viability (HARA; first compound 0.001 µM): 0.445 | relative viability (HARA; first compound 0.003162 µM): 0.307 | relative viability (HARA; first compound 0.01 µM): 0.458 | relative viability (HARA; first compound 0.03162 µM): 0.197 | relative viability (HARA; first compound 0.1 µM): 0.186 | relative viability (HCC-366; first compound 0.001 µM): 0.161 | relative viability (HCC-366; first compound 0.01 µM): 0.133 | relative viability (HCC-366; first compound 0.03162 µM): 0.111 | relative viability (HCC-366; first compound 0.1 µM): 0.137 | relative viability (HCC-78; first compound 0.001 µM): 0.211 | relative viability (HCC-78; first compound 0.003162 µM): 0.178 | relative viability (HCC-78; first compound 0.01 µM): 0.198 | relative viability (HCC-78; first compound 0.03162 µM): 0.202 | relative viability (HCC-78; first compound 0.1 µM): 0.224 | relative viability (LU99A; first compound 0.001 µM): 0.295 | relative viability (LU99A; first compound 0.003162 µM): 0.412 | relative viability (LU99A; first compound 0.01 µM): 0.328 | relative viability (LU99A; first compound 0.03162 µM): 0.342 | relative viability (LU99A; first compound 0.1 µM): 0.277 | relative viability (NCI-H1650; first compound 0.001 µM): 0.534 | relative viability (NCI-H1650; first compound 0.003162 µM): 0.709 | relative viability (NCI-H1650; first compound 0.01 µM): 0.562 | relative viability (NCI-H1650; first compound 0.03162 µM): 0.546 | relative viability (NCI-H1650; first compound 0.1 µM): 0.288 | relative viability (NCI-H1651; first compound 0.001 µM): 0.576 | relative viability (NCI-H1651; first compound 0.003162 µM): 0.619 | relative viability (NCI-H1651; first compound 0.01 µM): 0.638 | relative viability (NCI-H1651; first compound 0.03162 µM): 0.568 | relative viability (NCI-H1651; first compound 0.1 µM): 0.308 | relative viability (NCI-H1755; first compound 0.001 µM): 0.445 | relative viability (NCI-H1755; first compound 0.003162 µM): 0.466 | relative viability (NCI-H1755; first compound 0.01 µM): 0.411 | relative viability (NCI-H1755; first compound 0.03162 µM): 0.34 | relative viability (NCI-H1755; first compound 0.1 µM): 0.261 | relative viability (NCI-H1793; first compound 0.003162 µM): 0.32 | relative viability (NCI-H1793; first compound 0.01 µM): 0.31 | relative viability (NCI-H1793; first compound 0.03162 µM): 0.31 | relative viability (NCI-H1793; first compound 0.1 µM): 0.235 | relative viability (NCI-H2085; first compound 0.001 µM): 0.435 | relative viability (NCI-H2085; first compound 0.003162 µM): 0.457 | relative viability (NCI-H2085; first compound 0.01 µM): 0.402 | relative viability (NCI-H2085; first compound 0.03162 µM): 0.466 | relative viability (NCI-H2085; first compound 0.1 µM): 0.405 | relative viability (NCI-H2087; first compound 0.001 µM): 0.759 | relative viability (NCI-H2087; first compound 0.003162 µM): 0.846 | relative viability (NCI-H2087; first compound 0.01 µM): 0.984 | relative viability (NCI-H2087; first compound 0.03162 µM): 0.606 | relative viability (NCI-H2087; first compound 0.1 µM): 0.32 | relative viability (NCI-H23; first compound 0.001 µM): 0.411 | relative viability (NCI-H23; first compound 0.003162 µM): 0.498 | relative viability (NCI-H23; first compound 0.01 µM): 0.546 | relative viability (NCI-H23; first compound 0.03162 µM): 0.348 | relative viability (NCI-H23; first compound 0.1 µM): 0.403 | relative viability (NCI-H3122; first compound 0.001 µM): 0.666 | relative viability (NCI-H3122; first compound 0.003162 µM): 0.846 | relative viability (NCI-H3122; first compound 0.01 µM): 0.808 | relative viability (NCI-H3122; first compound 0.03162 µM): 0.473 | relative viability (NCI-H3122; first compound 0.1 µM): 0.436 | relative viability (NCI-H322M; first compound 0.001 µM): 0.651 | relative viability (NCI-H322M; first compound 0.003162 µM): 0.503 | relative viability (NCI-H322M; first compound 0.03162 µM): 0.529 | relative viability (NCI-H322M; first compound 0.1 µM): 0.528 | relative viability (NCI-H358; first compound 0.001 µM): 0.375 | relative viability (NCI-H358; first compound 0.003162 µM): 0.438 | relative viability (NCI-H358; first compound 0.01 µM): 0.348 | relative viability (NCI-H358; first compound 0.03162 µM): 0.444 | relative viability (NCI-H358; first compound 0.1 µM): 0.301 | relative viability (NCI-H460; first compound 0.001 µM): 0.356 | relative viability (NCI-H460; first compound 0.003162 µM): 0.41 | relative viability (NCI-H460; first compound 0.01 µM): 0.402 | relative viability (NCI-H460; first compound 0.03162 µM): 0.263 | relative viability (NCI-H460; first compound 0.1 µM): 0.418 | relative viability (NCI-H596; first compound 0.001 µM): 0.352 | relative viability (NCI-H596; first compound 0.003162 µM): 0.41 | relative viability (NCI-H596; first compound 0.01 µM): 0.386 | relative viability (NCI-H596; first compound 0.03162 µM): 0.393 | relative viability (NCI-H596; first compound 0.1 µM): 0.366 | relative viability (NCI-H650; first compound 0.001 µM): 0.817 | relative viability (NCI-H650; first compound 0.003162 µM): 0.775 | relative viability (NCI-H650; first compound 0.01 µM): 0.841 | relative viability (NCI-H650; first compound 0.03162 µM): 0.853 | relative viability (NCI-H650; first compound 0.1 µM): 0.767 | relative viability (PC-3 [JPC-3]; first compound 0.001 µM): 0.791 | relative viability (PC-3 [JPC-3]; first compound 0.003162 µM): 0.88 | relative viability (PC-3 [JPC-3]; first compound 0.01 µM): 0.833 | relative viability (PC-3 [JPC-3]; first compound 0.03162 µM): 0.747 | relative viability (PC-3 [JPC-3]; first compound 0.1 µM): 0.342 | relative viability (SK-LU-1; first compound 0.001 µM): 0.499 | relative viability (SK-LU-1; first compound 0.003162 µM): 0.526 | relative viability (SK-LU-1; first compound 0.01 µM): 0.563 | relative viability (SK-LU-1; first compound 0.03162 µM): 0.366 | relative viability (SK-LU-1; first compound 0.1 µM): 0.499

— the supplement of paper PMC10307832
